The values that follow come from the NIST ThermoML archive (doi:10.1021/je8007843).

For this series the following is noted: Crystal; visual observation.

± gives the expanded uncertainty stated by the source.

Take `Nc1ccccn1` [2-pyridinamine]: the Normal melting temperature was 57.6 ± 0.6 °C. Next, `Nc1cccc(N)n1` [pyridine-2,6-diamine]: 121.7 ± 1.2 °C.
